Assay results published in US6444806B1, “Conjugates and methods of forming conjugates of oligonucleotides and carbohydrates” (Hisamitsu Pharmaceutical Co., Inc., priority 1996, dated 2002).
{Sucrose} = sucrose through a 1,5-bis(succinimidooxycarbonyloxy)pentane crosslinker

Columns and labels:
Exonuclease-1 = target: T1, Exonuclease-1 (Escherichia coli, UniProt P04995); assay type: in vitro ADME; conditions: 0.5 or 1.0 unit Exonuclease-1, 30 minutes at 37° C., gel autoradiography (FIG. 3)
T1 sequence (P04995 1-475): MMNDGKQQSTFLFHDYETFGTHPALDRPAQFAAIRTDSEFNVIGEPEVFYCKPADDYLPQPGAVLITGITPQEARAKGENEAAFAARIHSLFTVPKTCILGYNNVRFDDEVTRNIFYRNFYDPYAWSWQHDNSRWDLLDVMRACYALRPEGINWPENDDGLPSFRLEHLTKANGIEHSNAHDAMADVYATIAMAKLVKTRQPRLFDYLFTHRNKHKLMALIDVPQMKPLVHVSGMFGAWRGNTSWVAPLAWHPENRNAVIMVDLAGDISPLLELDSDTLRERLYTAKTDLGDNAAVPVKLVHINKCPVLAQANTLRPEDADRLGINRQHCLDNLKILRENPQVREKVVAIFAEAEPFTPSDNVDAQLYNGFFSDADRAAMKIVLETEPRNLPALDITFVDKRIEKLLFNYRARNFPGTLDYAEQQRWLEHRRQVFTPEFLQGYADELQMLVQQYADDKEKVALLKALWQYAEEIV
Description: (§1) Electrophoresis was performed using 20% polyacrylamide gels containing […], 90 mM Tris-borate (pH 8.3), 2 mM EDTA, 0.02% ammonium persulfate, and 15 μl tetraethylediamine (TEMED). Samples were dissolved in gel-loading buffer (10 M urea, 1.5 mM EDTA, 0.05% xylene cyanol, and 0.05% bromophenol blue) and heated at 90° C. for 1 minute and chilled before application to polyacrylamide gels.
Radiolabeled oligonucleotide (30,000 CPM) was incubated with either 0.5 or 1.0 unit of Exonuclease-1 in 67 mM glycine (pH 9.5), 10 mM 2-mercaptoethanol, and 6.7 mM MgCl2 in 20 μl for 30 minutes at 37° C. After incubation, 5 μl of gel-loading buffer were added. All reactions were analyzed by polyacrylamide gel electrophoresis followed by autoradiography of the wet gel at −70° C.

[1] = test system: RNA complementary to the oligonucleotide; experiment: RNase H assay (RNA-DNA heteroduplex formation); assay type: biochemical; conditions: Escherichia coli RNase H, 10 or 30 minutes, room temperature (FIG. 6)
Description: Radiolabeled oligonucleotide (30,000 CPM) was annealed to complementary RNA by incubation in 20 mM Tris-HCl (pH 7.5), 0.1 M KCl, 10 mM MgCl2, and 0.1 mM ATP in 10 μl for 5 minutes at 65° C. followed by slow cooling to room temperature. One unit of Escherichia coli RNase H was added and incubation at room temperature was continued for either 10 minutes or 30 minutes. After incubation, 5 μl of gel-loading buffer were added, and all samples were analyzed by polyacrylamide gel electrophoresis followed by autoradiography of the wet gel at −70° C.
Unconjugated and sucrose-conjugated phosphodiester and phosphorothioate oligonucleotides were tested for their ability to form stable RNA-DNA heteroduplexes by determining RNA susceptibility to degradation by RNase H. RNA complementary to the oligonucleotide was labeled at the 5′-end using γ-^32P-ATP and T4 polynucleotide kinase. Radiolabeled RNA was hybridized to either unconjugated phosphodiester, sucrose-conjugated phosphodiester, unconjugated phosphorothioate, or sucrose-conjugated phosphorothioate oligonucleotide. Heteroduplex formation was assayed by incubation with RNase H for either 10 minutes or 30 minutes.

[2] = Nuclease degradation assay in heat-inactivated 10% fetal bovine serum; assay type: in vitro ADME; conditions: phosphodiester oligonucleotides, up to 24 hours at 37° C. (FIG. 4)
Description: as §1
Radiolabeled oligonucleotide (30,000 CPM) was incubated in RPMI-1640 medium (GIBCO-BRL, Grand Island, N.Y.) containing 10% heat-inactivated fetal bovine serum at 37° C. Samples were removed at various times, mixed with gel-loading buffer, and frozen at −20 C. Samples were analyzed by polyacrylamide gel electrophoresis followed by autoradiography of the wet gel at −70° C.

## sucrose-conjugated phosphodiester oligonucleotide: 19-mer phosphodiester oligonucleotide (Sequence ID No. 1) coupled at 3′-end to sucrose via crosslinker 1,5-bis(succinimidooxycarbonyloxy)pentane (GCTTCTGTGCTCATGGTCT; all phosphodiester, 3' {Sucrose}, sugars by position and methylation of C not given here; further chemistry not fully specified)
Exonuclease-1
  degradation by Exonuclease-1: only negligible degradation
[1]
  RNA susceptibility to degradation by RNase H (stable RNA-DNA heteroduplex formation): degraded by RNase H
[2]
  degradation in heat-inactivated 10% fetal bovine serum: relatively resistant to degradation

## unconjugated phosphodiester oligonucleotide: phosphodiester oligonucleotide, 19 nucleotides in length, sequence of Sequence ID No. 1, unconjugated control (GCTTCTGTGCTCATGGTCT; all phosphodiester, sugars by position and methylation of C not given here)
Exonuclease-1
  degradation by Exonuclease-1: degraded nearly completely
[1]
  RNA susceptibility to degradation by RNase H (stable RNA-DNA heteroduplex formation): degraded by RNase H
[2]
  degradation in heat-inactivated 10% fetal bovine serum: highly susceptible to degradation
